Values joined by “and” are separate entries in the source; they are usually repeats but may differ in a detail not shown here. Identical values can stand only once.
Test system: Serratia marcescens ATCC 14756
Test: Residual activity testing procedure on pigskin
Assay type: cell-based
Conditions: for Average Series: average log reduction of all four series; for Average Series / antimicrobial activity (in words): FIG. 1; for antimicrobial activity (in words): additives of Table II in the Table I base; for Average Log Reduction: average of two series; for Log Value: log of colony forming units remaining; for Log Value / Log Reduction: single series; for log reduction values and antimicrobial activity (in words): compositions of Table V, additive at 0.5 parts per 100 parts
Procedure: The gram negative organism was grown for approximately 24 hours at 30° C. and then suspended in Butterfields Buffer to a count of 1×10^8. The pigskins were prepared according to the following standard of procedure. Pigskin hides are collected on the date of slaughter and processed on the same day by removing adipose tissue and thoroughly cleaning the hide. Both of these processes are accomplished by spraying both sides of the pig hide with a high pressure washer. No soap or detergents are used at any time during the processing of pig hides for laboratory use. After cleaning and de-fatting, pigskins are placed in water and frozen at the farm from which they were harvested. When required for laboratory testing, a representative procures the hides and thaws them for laboratory manipulation. In the laboratory, these hides are cut into manageable pieces with a scalpel and coarse hair removed with animal grooming clippers. Disposable razors are further employed to create a smooth surface without negatively affecting the skin surface. These pieces are then sterilized by Gamma irradiation and kept frozen until use in a study. Testing circles were then punched out of the pigskins and glued to a phenolic cap. The testing samples were placed in a 30° C. oven to equilibrate for at least 20 minutes. Each skin was treated with 150 μl of test product and rubbed for 30 seconds as a pair, skin to skin. The skins were allowed to dry for 30 seconds and then the test product was reapplied four times in the same manner. The skins were allowed to dry in a slightly opened hood for 15 minutes. After drying the skins were inoculated with 31 μl of the Serratia marcescens inoculum, as prepared above, rubbed for 15 seconds, and sampled after three minutes. To sample, a sterile 3.5 cm diameter cylinder is placed, lip side down, over the pigskin on the cap. Enough pressure is applied to the cylinder to prevent any leakage upon the addition of an appropriate volume of liquid sampling solution to the cylinder. The skin is then debrided, using a sterile policeman, for 30 seconds by rubbing the surface of the skin with the flat edge of the policeman with enough pressure to remove any microorganisms that might be on the surface. Two mL of the sampling solution are removed using a sterile pipet and are utilized for preparing serial dilutions and aerobic plate counts to establish the number of Colony Forming Units remaining.

[1] = additive at the active % listed in Table III in the Table I base
[2] = additive at the active % listed in Table III in the Table I base, pigskin residual activity
[3] = additive at 0.5 parts by weight per 100 parts total composition in the Table I base, FIG. 2
[4] = additive at 0.5 parts by weight per 100 parts total composition in the Table I base

Compound | Average Series [1] | Average Log Reduction [3] | Log Value [4] | Log Reduction [4] | other results
CCCCCCCCCCCC(=O)OCC(O)CO (stereo not shown) [Glyceryl monolaurate] | −0.21 | – | – | – | –
OCCOc1ccccc1 [Phenoxyethanol, Phenoxyethanol (ethylene glycol phenyl ether)] | 3.39 | – | – | – | antimicrobial activity (in words): enhanced antimicrobial activity
Cocoamidopropyl PG dimonium chloride | −0.04 | – | – | – | Average Log Reduction [2]: −0.13 and 0.04
Quaternium 26 | – | −0.07 | 6.20 and 6.13 | −0.11 and −0.03 | –
Oc1cc(Cl)ccc1Oc1ccc(Cl)cc1Cl [Triclosan] | −0.04 | – | – | – | –
Sodium Coco PG-Dimonium chloride phosphate | – | 0.40 | 5.69 and 5.71 | 0.41 and 0.39 | –
CCCCCCCCCC(=O)OCC(O)CO (stereo not shown) [Glyceryl caprate] | – | – | 5.17 and 5.19 | – | –
CCCCCCCCCCCCCCCCCCCCCC(=O)NCCC[N+](C)(C)CCO.[Cl-] [Hydroxyethyl behenamidopropyldimonium chloride] | – | 0.63 | – | – | –
CCCCCCCCCCCCCCCCCC[N+](C)(C)Cc1ccccc1.[Cl-] [Stearalkonium chloride] | – | 0.25 | 5.93 and 5.77 | 0.17 and 0.33 | –
C[N+](C)(C)CCCNC(=O)C=Cc1ccccc1.[Cl-] [Cinnamidopropyl trimethylammonium chloride] | – | 0.05 | 5.98 and 6.12 | 0.12 and −0.02 | –
COC(=O)c1ccc(O)cc1 [Methyl paraben] | 0.03 | – | – | – | –
CCCCCCCCCCCCCCCCCCCCCC[N+](C)(C)C.COS(=O)(=O)[O-] [Behentrimonium methosulfate] | 5.39 | 5.25 | – | – | antimicrobial activity (in words): enhanced antimicrobial activity; log reduction values and antimicrobial activity (in words): excellent log reduction values
CCCCCCCCCCCCCCCC[N+](C)(C)C.[Cl-] [Cetrimonium chloride] | – | 1.24 | 4.87 and 4.85 | 1.23 and 1.25 | –
CCCOC(=O)c1ccc(O)cc1 [Propyl paraben] | 0.40 | – | – | – | –
Babbassuamidopropalkonium Chloride | – | 0.35 | 5.82 and 5.68 | 0.28 and 0.42 | –
CC(C)(C)CC(C)(C)c1ccc(OCCOCC[N+](C)(C)Cc2ccccc2)cc1 [Benzethonium Chloride, Benzethonium chloride] | 0.17 | – | – | – | –
Isostearyamidopropyl morpholine lactate | – | −0.09 | 6.17 and 6.20 | −0.07 and −0.10 | –
Cc1cc(O)cc(C)c1Cl [PCMX] | 0.16 | – | – | – | Average Log Reduction [2]: 0.06 and 0.26
CCCCCCCCCCCCCCCCCCCCCC[N+](C)(C)Cc1ccccc1.[Cl-] [Behenalkonium chloride, Behenalkonium Chloride] | – | 4.41 | 1.60 and 1.78 | 4.50 and 4.32 | log reduction values and antimicrobial activity (in words): excellent log reduction values
CC(O)C(=O)O.CCCCCCCCCCCCCCCCCC(=O)NCCCN(C)C [Stearamidopropyl dimethylamine lactate] | – | – | 6.22 and 6.05 | – | –
CCCCCCCC/C=C\CCCCCCCC[N+](C)(C)Cc1ccccc1.[Cl-] [Olealkonium chloride, Olealkonium Chloride] | – | 0.31 | 5.76 and 5.81 | 0.34 and 0.29 | –
IPEG-3 Dioleylamidoethylmonium methosulfate | – | 0.27 | 5.84 and 5.81 | 0.26 and 0.29 | –
CCCCCCCCCCCCCCCCCCCCCC[N+](C)(C)C.[Cl-] [Behentrimonium chloride] | – | 0.33 | 5.78 and 5.76 | 0.32 and 0.34 | –

Source: patent publication US7985773B2 (American Sterilizer Company, priority 2004, dated 2011)
